Active and inactive are the calls of the source. No cut-off for these calls is given here.
Key:
K562 [1] = assay: Antiproliferative activity against human K562 cells assessed as inhibition of cell proliferation incubated for 48 hrs by MTT assay; format: functional, cell-based; settings: K562, 48 h
NCI-H1299 = assay: Antiproliferative activity against human NCI-H1299 cells assessed as inhibition of cell proliferation incubated for 48 hrs by MTT assay; format: functional, cell-based; settings: NCI-H1299, 48 h
PC-3 = assay: Antiproliferative activity against human PC3 cells assessed as inhibition of cell proliferation incubated for 48 hrs by MTT assay; format: functional, cell-based; settings: PC-3, 48 h
A549 = assay: Antiproliferative activity against human A549 cells assessed as inhibition of cell proliferation incubated for 48 hrs by MTT assay; format: functional, cell-based; settings: A549, 48 h
MRC5 = assay: Cytotoxicity against human MRC5 cells assessed as inhibition of cell proliferation incubated for 48 hrs by MTT assay; format: cell-based; settings: MRC5, 48 h
K562 [2] = assay: Induction of apoptosis in human K562 cells at assessed as late apoptotic cells at 20 uM measured after 24 hrs by AnnexinV-FITC/propidium iodide staining based flow cytometry (reference value: 2.06 %); format: functional
K562 [3] = assay: Induction of apoptosis in human K562 cells at assessed as necrotic cells at 5 uM measured after 24 hrs by AnnexinV-FITC/propidium iodide staining based flow cytometry (reference value: 0.518 %); format: functional
K562 [4] = assay: Induction of apoptosis in human K562 cells assessed as downregulation of Bcl-2 protein measured after 24 hrs by Western blot analysis; format: functional, cell-based
K562 [5] = assay: Induction of apoptosis in human K562 cells assessed as upregulation of Bax protein expression measured after 24 hrs by Western blot analysis; format: functional, cell-based
K562 [6] = assay: Cell cycle arrest in human K562 cells assessed as decrease in cell population at S phase at 5 uM measured after 24 hrs by flow cytometry analysis; format: functional, cell-based
K562 [7] = assay: Induction of apoptosis in human K562 cells measured after 24 hrs by AnnexinV-FITC/propidium iodide staining based flow cytometry; format: functional, cell-based
K562 [8] = assay: Induction of apoptosis in human K562 cells at assessed as live cells at 5 uM measured after 24 hrs by AnnexinV-FITC/propidium iodide staining based flow cytometry (reference value: 96 %); format: functional
K562 [9] = assay: Induction of apoptosis in human K562 cells at assessed as necrotic cells at 20 uM measured after 24 hrs by AnnexinV-FITC/propidium iodide staining based flow cytometry (reference value: 0.518 %); format: functional
K562 [10] = assay: Induction of apoptosis in human K562 cells at assessed as early apoptotic cells at 10 uM measured after 24 hrs by AnnexinV-FITC/propidium iodide staining based flow cytometry (reference value: 1.45 %); format: functional
K562 [11] = assay: Induction of apoptosis in human K562 cells at 5 to 20 uM measured after 24 hrs by AO-EB staining based fluorescence microscopy analysis; format: functional, cell-based
K562 [12] = assay: Induction of apoptosis in human K562 cells at assessed as early apoptotic cells at 5 uM measured after 24 hrs by AnnexinV-FITC/propidium iodide staining based flow cytometry (reference value: 1.45 %); format: functional
K562 [13] = assay: Induction of apoptosis in human K562 cells at assessed as late apoptotic cells at 5 uM measured after 24 hrs by AnnexinV-FITC/propidium iodide staining based flow cytometry (reference value: 2.06 %); format: functional
K562 [14] = assay: Induction of apoptosis in human K562 cells at assessed as live cells at 20 uM measured after 24 hrs by AnnexinV-FITC/propidium iodide staining based flow cytometry (reference value: 96 %); format: functional
K562 [15] = assay: Cell cycle arrest in human K562 cells assessed as increase in cell population at G1 phase at 5 uM measured after 24 hrs by flow cytometry analysis; format: functional, cell-based
K562 [16] = assay: Induction of apoptosis in human K562 cells at assessed as early apoptotic cells at 20 uM measured after 24 hrs by AnnexinV-FITC/propidium iodide staining based flow cytometry (reference value: 1.45 %); format: functional
K562 [17] = assay: Induction of apoptosis in human K562 cells at assessed as late apoptotic cells at 10 uM measured after 24 hrs by AnnexinV-FITC/propidium iodide staining based flow cytometry (reference value: 2.06 %); format: functional
K562 [18] = assay: Induction of apoptosis in human K562 cells at assessed as necrotic cells at 10 uM measured after 24 hrs by AnnexinV-FITC/propidium iodide staining based flow cytometry (reference value: 0.518 %); format: functional
K562 [19] = assay: Induction of apoptosis in human K562 cells at assessed as live cells at 10 uM measured after 24 hrs by AnnexinV-FITC/propidium iodide staining based flow cytometry (reference value: 96 %); format: functional

SMILES	IC50 (K562 [1]) [µM]	IC50 (NCI-H1299) [µM]	IC50 (PC-3) [µM]	IC50 (A549) [µM]	further results
COc1c2c(c(O)c3c(=O)cc(-c4ccccc4)oc13)C(c1ccc(C)cc1)C(C#N)=C(N)O2 (stereo unspecified)	> 50	> 50	> 50	> 50	–
CC(C)(C)c1ccc(C2C(C#N)=C(N)Oc3cc4oc(-c5ccccc5)cc(=O)c4c(O)c32)cc1 (stereo unspecified)	47.1	> 50	> 50	> 50	–
N#CC1=C(N)Oc2cc3oc(-c4ccccc4)cc(=O)c3c(O)c2C1c1ccc(Cl)cc1 (stereo unspecified)	12.4	33.1	> 50	> 50	–
N#CC1=C(N)Oc2cc3oc(-c4ccccc4)cc(=O)c3c(O)c2C1c1cccc([N+](=O)[O-])c1 (stereo unspecified)	15.6	40.8	41.3	31.9	–
N#CC1=C(N)Oc2cc3oc(-c4ccccc4)cc(=O)c3c(O)c2C1c1ccc(F)cc1 (stereo unspecified)	14.5	> 50	26.1	15.4	–
N#CC1=C(N)Oc2cc3oc(-c4ccccc4)cc(=O)c3c(O)c2C1c1ccccc1F (stereo unspecified)	28.1	45.3	43.2	44	–
Cc1ccc(C2C(C#N)=C(N)Oc3cc4oc(-c5ccccc5)cc(=O)c4c(O)c32)cc1 (stereo unspecified)	14.8	28.5	28.4	48.5	–
COc1ccc(-c2cc(=O)c3c(O)c4c(cc3o2)OC(N)=C(C#N)C4c2ccc(F)cc2)c(OC)c1 (stereo unspecified)	45.2	44.8	> 50	> 50	–
N#CC1=C(N)Oc2cc3oc(-c4ccccc4)cc(=O)c3c(O)c2C1c1ccccc1 (stereo unspecified)	43	> 50	46.9	31.6	–
COc1ccc(C2C(C#N)=C(N)Oc3cc4oc(-c5ccccc5)cc(=O)c4c(O)c32)cc1 (stereo unspecified)	38.1	40.1	> 50	> 50	–
N#CC1=C(N)Oc2cc3oc(-c4ccccc4)cc(=O)c3c(O)c2C1c1cccc(F)c1 (stereo unspecified)	18.6	40.8	30.4	20.5	–
N#CC1=C(N)Oc2cc3oc(-c4ccccc4)cc(=O)c3c(O)c2C1c1ccccc1Br (stereo unspecified)	48.8	> 50	> 50	> 50	–
COc1ccccc1C1C(C#N)=C(N)Oc2cc3oc(-c4ccccc4)cc(=O)c3c(O)c21 (stereo unspecified)	20.2	> 50	> 50	> 50	–
N#CC1=C(N)Oc2cc3oc(-c4ccccc4)cc(=O)c3c(O)c2C1c1ccccc1Cl (stereo unspecified)	14.4	43.4	> 50	> 50	–
N#CC1=C(N)Oc2cc3oc(-c4ccccc4)cc(=O)c3c(O)c2C1c1ccc(Br)cc1 (stereo unspecified)	10.1	18.8	46.8	> 50	–
O=c1cc(-c2ccccc2)oc2cc(O)cc(O)c12 [CHRYSIN]	> 50	> 50	> 50	> 50	IC50 (MRC5): > 100 µM
Cc1ccc(C2C(C#N)=C(N)Oc3cc4oc(-c5ccccc5)cc(=O)c4c(O)c32)c(C)c1 (stereo unspecified)	19.7	42	> 50	> 50	–
N#CC1=C(N)Oc2cc3oc(-c4ccccc4)cc(=O)c3c(O)c2C1c1cccc(Br)c1 (stereo unspecified)	6.41	24.2	36.8	> 50	Activity (K562 [2]): 7.58%; Activity (K562 [3]): 1.06%; Activity (K562 [4]): Dose-dependent effect; Activity (K562 [5]): Dose-dependent effect; Activity (K562 [6]): Dose-dependent effect; Activity (K562 [7]): Dose-dependent effect; Activity (K562 [8]): 90.2%; Activity (K562 [9]): 2.44%; Activity (K562 [10]): 14.4%; Activity (K562 [11]): Active; Activity (K562 [12]): 5.87%; IC50 (MRC5): > 100 µM; Activity (K562 [13]): 2.85%; Activity (K562 [14]): 62.4%; Activity (K562 [15]): Dose-dependent effect; Activity (K562 [16]): 27.6%; Activity (K562 [17]): 5.23%; Activity (K562 [18]): 2.84%; Activity (K562 [19]): 77.6%
COc1cccc(C2C(C#N)=C(N)Oc3cc4oc(-c5ccccc5)cc(=O)c4c(O)c32)c1OC (stereo unspecified)	16.8	> 50	> 50	> 50	–
